Measurements as given in patent US6635771B2, “N-benzhydryl indole compounds” (Wyeth, priority 2001, dated 2003).

molecular target: T1, cPLA2 (Homo sapiens, UniProt P47712); assay: Coumarine Assay; format: biochemical; settings: 60 μM 7-hydroxycoumarinyl 6-heptenoate substrate, 4 μg cPLA2, pH 7.5, fluorescence ex 360 nm / em 460 nm; read-out: Coumarin IC50
T1 sequence (P47712 1-749): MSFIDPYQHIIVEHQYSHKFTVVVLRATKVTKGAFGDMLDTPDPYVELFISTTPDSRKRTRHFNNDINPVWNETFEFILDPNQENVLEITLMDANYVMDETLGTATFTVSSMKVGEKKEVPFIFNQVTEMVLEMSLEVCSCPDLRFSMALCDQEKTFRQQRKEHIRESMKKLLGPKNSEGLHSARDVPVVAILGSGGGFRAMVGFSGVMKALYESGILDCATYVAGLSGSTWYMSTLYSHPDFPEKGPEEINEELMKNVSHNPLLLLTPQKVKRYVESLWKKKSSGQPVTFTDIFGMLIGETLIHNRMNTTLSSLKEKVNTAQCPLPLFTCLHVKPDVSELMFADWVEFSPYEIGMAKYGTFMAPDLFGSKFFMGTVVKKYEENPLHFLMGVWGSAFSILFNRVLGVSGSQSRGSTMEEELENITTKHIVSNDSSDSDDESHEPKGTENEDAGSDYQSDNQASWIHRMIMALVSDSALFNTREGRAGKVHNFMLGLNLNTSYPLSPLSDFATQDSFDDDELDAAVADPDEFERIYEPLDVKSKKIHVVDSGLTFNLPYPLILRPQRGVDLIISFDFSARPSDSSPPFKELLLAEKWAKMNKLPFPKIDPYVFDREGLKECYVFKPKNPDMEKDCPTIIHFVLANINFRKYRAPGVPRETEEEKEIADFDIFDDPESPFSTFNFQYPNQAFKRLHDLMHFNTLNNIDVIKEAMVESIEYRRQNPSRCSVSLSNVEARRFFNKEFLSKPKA

In order of rising IC50:
1. Cc1cccc(C)c1CS(=O)(=O)NCCc1c(CCCc2ccc(C(=O)O)cc2)c2cc(Cl)ccc2n1C(c1ccccc1)c1ccccc1 [Example 52, 4-{3-[1-benzhydryl-5-chloro-2-(2-{[(2,6-dimethylbenzyl)sulfonyl]amino}ethyl)-1H-indoly-3-yl]propyl}benzoic acid]  130 nM
2. O=C(O)c1ccc(CCCc2c(CCNS(=O)(=O)Cc3cccc([N+](=O)[O-])c3)n(C(c3ccccc3)c3ccccc3)c3ccc(Cl)cc23)cc1 [Example 65, 4-{3-[1-benzhydryl-5-chloro-2-(2-{[(3-nitrobenzyl)sulfonyl]amino}ethyl)-1H-indol-3-yl]propyl}benzoic acid]  130 nM
3. O=C(O)c1ccc(CCCc2c(CCNS(=O)(=O)Cc3cc(Cl)ccc3Cl)n(C(c3ccccc3)c3ccccc3)c3ccc(Cl)cc23)cc1 [Example 67, 4-{3-[1-benzhydryl-5-chloro-2-(2-{[(2,5-dichlorobenzyl)sulfonyl]amino}ethyl)-1H-indol-3-yl]propyl}benzoic acid]  140 nM
4. O=C(O)c1ccc(CCCc2c(CCNS(=O)(=O)Cc3cccc(Cl)c3)n(C(c3ccccc3)c3ccccc3)c3ccc(Cl)cc23)cc1 [Example 66, 4-{3-[1-benzhydryl-5chloro-2-(2{[(3-chlorobenzyl)sulfonyl]amino}ethyl)-1H-indol-3-yl]propyl}benzoic acid]  150 nM
5. Nc1ccccc1CS(=O)(=O)NCCc1c(CCCc2ccc(C(=O)O)cc2)c2cc(Cl)ccc2n1C(c1ccccc1)c1ccccc1 [Example 69, 4-{3-[2-(2-{[(2-aminobenzyl)sulfonyl]amino}ethyl)-1-benzhydryl-5-chloro-1H-indol-3-yl]propyl}benzoic acid]  150 nM
6. COc1cccc(CS(=O)(=O)NCCc2c(CCCc3ccc(C(=O)O)cc3)c3cc(Cl)ccc3n2C(c2ccccc2)c2ccccc2)c1 [Example 68, 4-{3-[1-benzhydryl-5-chloro-2-(2-{[(3-methoxybenzyl)sulfonyl]amino}ethyl)-1H-indol-3-yl]propyl}benzoic acid]  160 nM
7. O=C(O)c1ccc(CCCc2c(CCNS(=O)(=O)Cc3ccccc3)n(C(c3ccccc3)c3ccccc3)c3ccc(Cl)cc23)cc1 [Example 42, 4-{3-[1-Benzhydryl-5-chloro-2-(2-phenylmethanesulfonylamino-ethyl)-1H-indol-3-yl]-propyl)-benzoic acid]  180 nM
8. Cc1ccccc1CS(=O)(=O)NCCc1c(CCCc2ccc(C(=O)O)cc2)c2cc(Cl)ccc2n1C(c1ccccc1)c1ccccc1 [Example 70, 4-{3-[1-Benzhydryl-5-chloro-2-(2-{[(2-methylbenzyl)sulfonyl]amino}ethyl)-1H-indol-3-yl]propyl}benzoic acid]  180 nM
9. CCN(CC)S(=O)(=O)c1ccc(CS(=O)(=O)NCCc2c(CCOc3ccc(C(=O)O)cc3)c3cc(Cl)ccc3n2C(c2ccccc2)c2ccccc2)cc1 [Example 41, 4-(2-{1-Benzhydryl-5-chloro-2-[2-(4-diethylsulfamoyl-phenylmethanesulfonylamino) -ethyl]-1H-indol-3-yl}-ethoxy)-benzoic acid]  200 nM
10. O=C(O)c1ccc(CCCc2c(CCNS(=O)(=O)Cc3cc(Cl)cc(Cl)c3)n(C(c3ccccc3)c3ccccc3)c3ccc(Cl)cc23)cc1 [Example 43, 4-{3-[1-benzhydryl-5-chloro-2-(2-{[(3,5-dichlorobenzyl)sulfonyl]amino}ethyl)-1H-indol-3-yl]propyl}benzoic acid]  200 nM
11. O=C(O)c1ccc(OCCc2c(CCNS(=O)(=O)Cc3cccc([N+](=O)[O-])c3)n(C(c3ccccc3)c3ccccc3)c3ccc(Cl)cc23)cc1 [Example 55, 4-{2-[1-benzhydryl-5-chloro-2-(2-{[(3-nitrobenzyl)sulfonyl]amino}ethyl)-1H-indol-3-yl]ethoxy}benzoic acid]  260 nM
12. O=C(O)c1ccc(CCCc2c(CCNS(=O)(=O)Cc3ccc(F)cc3)n(C(c3ccccc3)c3ccccc3)c3ccc(Cl)cc23)cc1 [Example 57]  280 nM
13. O=C(O)c1ccc(OCCc2c(CCNS(=O)(=O)Cc3c(F)cccc3[N+](=O)[O-])n(C(c3ccccc3)c3ccccc3)c3ccc(Cl)cc23)cc1 [Example 72, 4-{2-[1-Benzhydryl-5-chloro-2-(2-{[(2-fluoro-6-nitrobenzyl)sulfonyl]amino}ethyl)-1H-indol-3-yl]ethoxy)benzoic acid]  280 nM
14. O=C(O)c1ccc(CCCc2c(CCNS(=O)(=O)Cc3cccc(C(F)(F)F)c3)n(C(c3ccccc3)c3ccccc3)c3ccc(Cl)cc23)cc1 [Example 59, 4-(3-{1-benzhydryl-5-chloro-2-[2-({[3-(trifluoromethyl)benzyl]sulfonyl}amino)ethyl]-1H-indol-3-yl}propyl)benzoic acid]  290 nM
15. O=C(O)c1ccc(CCCc2c(CCNS(=O)(=O)Cc3ccncc3)n(C(c3ccccc3)c3ccccc3)c3ccc(Cl)cc23)cc1 [Example 63, 4-{3-[1-benzhydryl-5-chloro-2-(2-{[(4-pyridinylmethyl)sulfonyl]amino}ethyl)-1H-indol-3-yl]propyl}benzoic acid]  300 nM
16. O=C(O)c1ccc(OCCc2c(CCNS(=O)(=O)Cc3ccc([N+](=O)[O-])cc3)n(C(c3ccccc3)c3ccccc3)c3ccc(Cl)cc23)cc1 [Example 54, 4-{2-[1-benzhydryl-5-chloro-2-(2-{[(4-nitrobenzyl)sulfonyl]amino}ethyl)-1H-indol-3-yl]ethoxy}benzoic acid]  310 nM
17. NS(=O)(=O)c1ccc(CS(=O)(=O)NCCc2c(CCOc3ccc(C(=O)O)cc3)c3cc(Cl)ccc3n2C(c2ccccc2)c2ccccc2)cc1 [Example 39, 4-(2-{2-[2-({[4-(Aminosulfonyl)benzyl]sulfonyl}amino)ethyl]-1-benzhydryl-5-chloro-1H-indol-3-yl}ethoxy)benzoic acid]  320 nM
18. O=C(O)c1ccc(CCCc2c(CCNS(=O)(=O)Cc3ccccn3)n(C(c3ccccc3)c3ccccc3)c3ccc(Cl)cc23)cc1 [Example 61, 4-{3-[1-benzhydryl-5-chloro-2-(2-{[(2-pyridinylmethyl)sulfonyl]amino}ethyl)-1H-indol-3-yl]propyl}benzoic acid]  340 nM
19. O=C(O)c1ccc(CCCc2c(CCNS(=O)(=O)Cc3ccc(C(F)(F)F)cc3)n(C(c3ccccc3)c3ccccc3)c3ccc(Cl)cc23)cc1 [Example 58, 4-(3-{1-benzhydryl-5-chloro-2-[2-({[4-(trifluoromethyl)benzyl]sulfonyl}amino)ethyl]-1H-indol-3-yl}propyl)benzoic acid]  360 nM
20. N#Cc1ccc(CS(=O)(=O)NCCc2c(CCOc3ccc(C(=O)O)cc3)c3cc(Cl)ccc3n2C(c2ccccc2)c2ccccc2)cc1 [Example 37, 4-{2-[1-Benzhydryl-5-chloro-2-(2-{[(4-cyanobenzyl)sulfonyl]amino}ethyl)-1H-indol-3-yl]ethoxy}benzoic acid]  370 nM
21. O=C(O)c1ccc(CCCc2c(CCNS(=O)(=O)Cc3cccnc3)n(C(c3ccccc3)c3ccccc3)c3ccc(Cl)cc23)cc1 [Example 62, 4-(3-[1-benzhydryl-5-chloro-2-(2-{[(3-pyridinylmethyl)sulfonyl]amino}ethyl)-1H-indol-3-yl]propyl}benzoic acid]  380 nM
22. O=C(O)c1ccc(OCCc2c(CCNS(=O)(=O)Cc3ccc(OC(F)(F)F)cc3)n(C(c3ccccc3)c3ccccc3)c3ccc(Cl)cc23)cc1 [Example 71, 4-{2-[1-Benzhydryl-5-chloro-2-(2-{[(4-trifluorometoxybenzyl)sulfonyl]amino}ethyl)-1H-indol-3-yl]ethoxy}benzoic acid]  450 nM
23. O=C(O)c1ccc(OCCc2c(CCNS(=O)(=O)Cc3ccc(S(=O)(=O)N4CCCCC4)cc3)n(C(c3ccccc3)c3ccccc3)c3ccc(Cl)cc23)cc1 [Example 38, 4-(2-{1-Benzhydryl-5-chloro-2-[2-({[4-(1piperidinylsulfonyl)benzyl]sulfonyl}amino)ethyl]-1H-indol-3-yl}ethoxy)benzoic acid]  500 nM
24. O=C(O)c1ccc(OCCc2c(CCNS(=O)(=O)Cc3ccncc3)n(C(c3ccccc3)c3ccccc3)c3ccc(Cl)cc23)cc1 [Example 50]  690 nM
25. CS(=O)(=O)c1ccc(CS(=O)(=O)NCCc2c(CCOc3ccc(C(=O)O)cc3)c3cc(Cl)ccc3n2C(c2ccccc2)c2ccccc2)cc1 [Example 40, 4-(2-{1-Benzhydryl-5-chloro-2-[2-(4-methanesulfonyl-phenylmethanesulfonylamino)-ethyl]-1H-indol-3-yl}-ethoxy)-benzoic acid]  730 nM
26. O=C(O)c1ccc(OCCc2c(CCNS(=O)(=O)Cc3cccnc3)n(C(c3ccccc3)c3ccccc3)c3ccc(Cl)cc23)cc1 [Example 49]  1100 nM
27. O=C(O)c1ccc(OCCc2c(CCNS(=O)(=O)Cc3ccccn3)n(C(c3ccccc3)c3ccccc3)c3ccc(Cl)cc23)cc1 [Example 51]  2200 nM
28. O=C(O)c1ccc(OCCc2c(CCNS(=O)(=O)CCNC(=O)c3ccccc3C(=O)O)n(C(c3ccccc3)c3ccccc3)c3ccc(Cl)cc23)cc1 [Example 48, 2-{[(2-{[(2-{1-benzhydryl-3-[2-(4-carboxyphenoxy)ethyl]-5-chloro-1H-indol-2-yl}ethyl)amino]sulfonyl}ethyl)amino]carbonyl}benzoic acid]  2350 nM
